Assay results: ChEMBL document CHEMBL1949629, “Discovery of a second generation agonist of the orphan G-protein coupled receptor GPR119 with an improved profile” (Bioorg Med Chem Lett, 2012)
Values after ≈ are worked out from the molar mass of the structure shown.

Columns and labels:
[1] = Solubility in 40% HPbetaCD after 24 hrs; type: physicochemical
[2] = Solubility in 20% HPbetaCD after 24 hrs; type: physicochemical
[3] = Clearance in iv dosed Swiss albino mouse; type: ADME, organism-based; details: in vivo
[4] = Clearance in iv dosed Zucker fa/fa rat; type: ADME, organism-based; details: in vivo
[5] = Clearance in iv dosed Sprague-Dawley rat; type: ADME, organism-based; details: in vivo
[6] = Clearance in iv dosed Beagle dog; type: ADME, organism-based, Canis lupus familiaris; details: in vivo
[7] = Clearance in iv dosed Cynomolgus monkey; type: ADME, organism-based, Macaca fascicularis; details: in vivo
[8] = target: Cytochrome P450 2C9 (Homo sapiens, UniProt P11712); assay: Inhibition of CYP2C9; type: ADME
[9] = Solubility in water; type: physicochemical; details: buffer
[10] = Solubility in water at low pH; type: physicochemical; details: buffer

Sequence of Cytochrome P450 2C9 (P11712 whole entry): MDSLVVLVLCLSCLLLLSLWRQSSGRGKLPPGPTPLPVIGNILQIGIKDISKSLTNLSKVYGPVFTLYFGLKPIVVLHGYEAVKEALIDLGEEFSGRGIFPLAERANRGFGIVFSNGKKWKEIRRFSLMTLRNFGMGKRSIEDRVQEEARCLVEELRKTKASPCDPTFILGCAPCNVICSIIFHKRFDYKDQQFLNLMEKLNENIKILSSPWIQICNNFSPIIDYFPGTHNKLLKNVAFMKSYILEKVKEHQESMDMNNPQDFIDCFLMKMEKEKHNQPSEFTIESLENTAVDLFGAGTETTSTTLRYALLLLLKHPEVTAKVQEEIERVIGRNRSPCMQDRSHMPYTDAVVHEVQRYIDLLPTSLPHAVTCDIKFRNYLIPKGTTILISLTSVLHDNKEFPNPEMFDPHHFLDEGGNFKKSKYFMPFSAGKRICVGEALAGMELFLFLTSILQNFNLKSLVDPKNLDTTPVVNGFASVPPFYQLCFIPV

Structure (SMILES)	solubility at 24 h [1] [µg/mL]	solubility at 24 h [2] [µg/mL]	further results
Cc1ncccc1Oc1ncnc(OC2CCN(C(=O)OC(C)C)CC2)c1C	15900 (≈ 41.1 mM)	15900 (≈ 41.1 mM)	–
CC(C)OC(=O)N1CCC(Oc2ncnc3c2cnn3-c2ccc(S(C)(=O)=O)cc2F)CC1	–	–	clearance [3]: 3.83 mL/min/kg; clearance [4]: 7.33 mL/min/kg; clearance [5]: 20 mL/min/kg; clearance [6]: 2 mL/min/kg; clearance [7]: 1.83 mL/min/kg
Cc1ccc(Oc2ncnc(OC3CCN(C(=O)OC(C)C)CC3)c2C)c(C)n1	–	13200 (≈ 33.1 mM)	–
Cc1c(Oc2ccc(S(C)(=O)=O)cc2F)ncnc1OC1CCN(C(=O)OC(C)C)CC1	1100 (≈ 2.35 mM)	1100 (≈ 2.35 mM)	IC50 [8]: 5.3 µM
Cc1c(Nc2ccc(S(C)(=O)=O)cc2F)ncnc1OC1CCN(C(=O)OC(C)C)CC1	16700 (≈ 35.8 mM)	–	–
Cc1ncccc1Nc1ncnc(OC2CCN(C(=O)OC(C)C)CC2)c1C	7700 (≈ 20 mM)	–	–
Cc1ccncc1Oc1ncnc(OC2CCN(C(=O)OC(C)C)CC2)c1C	8500 (≈ 22 mM)	–	–
Cc1c(Oc2cncc(F)c2)ncnc1OC1CCN(C(=O)OC(C)C)CC1	–	5100 (≈ 13.1 mM)	–
Cc1nc(S(C)(=O)=O)ccc1Oc1ncnc(OC2CCN(C(=O)OC(C)C)CC2)c1C	–	6700 (≈ 14.4 mM)	–
Cc1nc(S(C)(=O)=O)ccc1Nc1ncnc(OC2CCN(C(=O)OC(C)C)CC2)c1C	–	24000 (≈ 51.8 mM)	solubility [9]: Insoluble; IC50 [8]: 2.5 µM; solubility [10]: soluble
